Source: patent US20080293771A1, “AZACYCLYLBENZAMIDE DERIVATIVES AS HISTAMINE-3 ANTAGONISTS” (Wyeth, priority 2007, published 2008)
Counter-ions that a name gives are not always drawn.

melting point	SMILES
270 °C (dec.)	Cc1nc2ccccc2n1-c1ccc(C(=O)N(C)C2CCN(C3CCCC3)CC2)cc1 (as salt: hydrochloride) [Example 32, N-(1-cyclopentylpiperidin-4-yl)-N-methyl-4-(2-methyl-1H-benzimidazol-1-yl)benzamide]
160 °C (dec.)	CN(C(=O)c1ccc(-n2ncc3ccccc32)cc1)C1CCN(C2CCC2)CC1 (as salt: hydrochloride) [Example 73, N-(1-cyclobutylpiperidin-4-yl)-4-(1H-indazol-1-yl)-N-methylbenzamide]
181 to 183 °C	Cc1nc2ccccc2n1-c1ccc(C(=O)N(C)[C@@H]2CCN(C(C)C)C2)cc1 (as salt: hydrochloride)
185 to 186 °C	Cc1nc2ccccc2n1-c1ccc(C(=O)N(C)[C@@H]2CCN(CC3CC3)C2)cc1 (as salt: hydrochloride)
235 to 237 °C	CN(C(=O)c1ccc(Cn2cccn2)cc1)C1CCN(C2CCC2)CC1 (as salt: hydrochloride) [Example 92, N-(1-cyclobutylpiperidin-4-yl)-N-methyl-4-(1H-pyrazol-1-ylmethyl)benzamide]
177 to 179 °C	CCN(C(=O)c1ccc(-n2c(C)nc3ccccc32)cc1)[C@@H]1CCN(C2CCCCC2)C1 (as salt: hydrochloride) [Example 142, N-[(3R)-1-cyclohexylpyrrolidin-3-yl]-N-ethyl-4-(2-methyl-1H-benzimidazol-1-yl)benzamide]
283 to 285 °C	CN(C(=O)c1ccc(-n2cc3ccccc3n2)cc1)C1CCN(C2CCCC2)CC1 (as salt: hydrochloride) [Example 71, N-(1-cyclopentylpiperidin-4-yl)-4-(2H-indazol-2-yl)-N-methylbenzamide]
193 to 194 °C	Cc1nc2ccccc2n1-c1ccc(C(=O)N(C)[C@@H]2CCN(C3CCCCC3)C2)cc1 (as salt: hydrochloride)
151 to 162 °C	CC(C)N1CCC(N(C)C(=O)c2ccc(-n3ncc4ccccc43)cc2)CC1 (as salt: hydrochloride) [Example 72, 4-(1H-indazol-1-yl)-N-(1-isopropylpiperidin-4-yl)-N-methylbenzamide]
280 °C (dec.)	Cc1nc2ccccc2n1Cc1ccc(C(=O)N(C)C2CCN(C3CCC3)CC2)cc1 (as salt: hydrochloride) [Example 47, N-(1-cyclobutylpiperidin-4-yl)-N-methyl-4-[(2-methyl-1H-benzimidazol-1-yl)methyl]benzamide]
185 to 187 °C	CC(C)N1CCC(N(C)C(=O)c2ccc(Cn3cnc4ccccc43)cc2)CC1 (as salt: hydrochloride) [Example 49, 4-(1H-benzimidazol-1-ylmethyl)-N-(1-isopropylpiperidin-4-yl)-N-methylbenzamide]
250 °C (dec.)	Cc1cc(C(=O)N(C)C2CCN(C(C)C)CC2)ccc1-n1c(C)nc2ccccc21 (as salt: hydrochloride) [Example 123, N,3-dimethyl-4-(2-methyl-1H-benzimidazol-1-yl)-N-[1-(1-methylethyl)piperidin-4-yl]benzamide]
207 to 209 °C	Cc1nc2ccccc2n1-c1ccc(C(=O)N(C)[C@@H]2CCN(C3CCC3)C2)c(Cl)c1 (as salt: hydrochloride) [Example 106, 2-chloro-N-[(3R)-1-cyclobutylpyrrolidin-3-yl]-N-methyl-4-(2-methyl-1H-benzimidazol-1-yl)benzamide]
238 to 240 °C	CN(C(=O)c1ccc(Cn2cnc3ccccc32)cc1)C1CCN(C2CCC2)CC1 (as salt: hydrochloride) [Example 50, 4-(1H-benzimidazol-1-ylmethyl)-N-(1-cyclobutylpiperidin-4-yl)-N-methylbenzamide]
280 °C (dec.)	Cc1nc2ccccc2n1Cc1ccc(C(=O)N(C)C2CCN(C3CCCC3)CC2)cc1 (as salt: hydrochloride) [Example 48, N-(1-cyclopentylpiperidin-4-yl)-N-methyl-4-[(2-methyl-1H-benzimidazol-1-yl)methyl]benzamide]
175 to 177 °C	Cc1nc2ccccc2n1-c1ccc(C(=O)N(C)[C@@H]2CCN(C(C)C)C2)cc1F (as salt: hydrochloride) [Example 103, 3-fluoro-N-methyl-4-(2-methyl-1H-benzimidazol-1-yl)-N-[(3R)-1-(1-methylethyl)pyrrolidin-3-yl]benzamide]
219 to 221 °C	Cc1nc2ccccc2n1-c1ccc(C(=O)N(C)C2CCNCC2)cc1 (as salt: hydrochloride) [Example 30, N-Methyl-4-(2-methylbenzimidazol-1-yl)-N-piperidin-4-yl-benzamide Hydrochloride]
170 to 172 °C	Cc1nc2ccccc2n1-c1ccc(C(=O)N(C)[C@H]2CCN(C3CCCCC3)C2)cc1 (as salt: hydrochloride)
285 to 286 °C	CC(C)N1CCC(N(C)C(=O)c2ccc(-n3cccn3)cc2)CC1 (as salt: hydrochloride) [Example 85, N-(1-isopropylpiperidin-4-yl)-N-methyl-4-(1H-pyrazol-1-yl)benzamide]

melting point	SMILES
168 to 170 °C	COc1cc(C(=O)N(C)[C@@H]2CCN(C(C)C)C2)ccc1-n1c(C)nc2ccccc21 (as salt: hydrochloride) [Example 109, 3-methoxy-N-methyl-4-(2-methyl-1H-benzimidazol-1-yl)-N-[(3R)-1-(1-methylethyl)pyrrolidin-3-yl]benzamide]
187 to 189 °C	Cc1nc2ccccc2n1-c1ccc(C(=O)N(C)[C@H]2CCN(C3CCC[C@@H](C)C3)C2)cc1 (some centres unmarked) (as salt: hydrochloride)
175 to 176 °C	Cc1nc2ccccc2n1-c1ccc(C(=O)N(C)[C@@H]2CCN(C3CCC3)C2)cc1 (as salt: hydrochloride)
190 to 192 °C	Cc1nc2ccccc2n1-c1ccc(C(=O)N(C)[C@H]2CCN(C(C)C)C2)cc1 (as salt: hydrochloride)
240 to 242 °C	Cc1nc2cc(C#N)ccc2n1-c1ccc(C(=O)N(C)[C@@H]2CCN(C3CCC3)C2)cc1 (as salt: hydrochloride) [Example 55, 4-(5-cyano-2-methyl-1H-benzimidazol-1-yl)-N-[(3R)-1-cyclobutylpyrrolidin-3-yl]-N-methylbenzamide]
228 to 230 °C	Cc1nc2ccccc2n1Cc1ccc(C(=O)N(C)C2CCN(C3CCCC3)CC2)c2ccccc12 (as salt: hydrochloride) [Example 144a, N-(1-cyclopentylpiperidin-4-yl)-N-methyl-4-((2-methyl-1H-benzo[d]imidazol-1-yl)methyl)-1-naphthamide]
279 to 281 °C	Cc1nc2ccccc2n1-c1ccc(C(=O)N(C)C2CCN(C(C)C)CC2)cc1F (as salt: hydrochloride) [Example 119, 3-fluoro-N-methyl-4-(2-methyl-1H-benzimidazol-1-yl)-N-[1-(1-methylethyl)piperidin-4-yl]benzamide]
265 to 267 °C	CN(C(=O)c1ccc(Cn2ncc3ccccc32)cc1)C1CCN(C2CCCC2)CC1 (as salt: hydrochloride) [Example 81, N-(1-cyclopentylpiperidin-4-yl)-4-(1H-indazol-1-ylmethyl)-N-methylbenzamide]
282 to 284 °C	Cc1nc2ccccc2n1-c1ccc(C(=O)N(C)C2CCN(C(C)C)CC2)cc1 (as salt: hydrochloride) [Example 31, N-(1-isopropylpiperidin-4-yl)-N-methyl-4-(2-methyl-1H-benzimidazol-1-yl)benzamide]
150 to 152 °C	CN(C(=O)c1ccc(Cn2cnc3ccccc32)cc1)[C@@H]1CCNC1 (as salt: hydrochloride) [Example 36, (R)-4-((1H-benzo[d]imidazol-1-yl)methyl)-N-methyl-N-(pyrrolidin-3-yl)benzamide Hydrochloride]
181 to 183 °C	Cc1nc2ccccc2n1-c1ccc(C(=O)N(C)[C@H]2CCN(C3CCCC(C)C3)C2)cc1 (some centres unmarked) (as salt: hydrochloride)
204 to 205 °C	Cc1nc2ccccc2n1-c1ccc(C(=O)N(C)[C@@H]2CCN(C(C)C)C2)c(Cl)c1 (as salt: hydrochloride) [Example 105, 2-chloro-N-methyl-4-(2-methyl-1H-benzimidazol-1-yl)-N-[(3R)-1-(1-methylethyl)pyrrolidin-3-yl]benzamide]
273 to 275 °C	CN(C(=O)c1ccc(-n2cc3ccccc3n2)cc1)C1CCN(C2CCC2)CC1 (as salt: hydrochloride) [Example 70, N-(1-cyclobutylpiperidin-4-yl)-4-(2H-indazol-2-yl)-N-methylbenzamide]
240 °C (dec.)	Cc1cc(C(=O)N(C)C2CCN(C3CCCC3)CC2)ccc1-n1c(C)nc2ccccc21 (as salt: hydrochloride) [Example 124, N-(1-cyclopentylpiperidin-4-yl)-N,3-dimethyl-4-(2-methyl-1H-benzimidazol-1-yl)benzamide]
230 to 232 °C	Cc1nc2cc(C#N)ccc2n1-c1ccc(C(=O)N(C)[C@@H]2CCN(C(C)C)C2)cc1 (as salt: hydrochloride) [Example 54, 4-(5-cyano-2-methyl-1H-benzimidazol-1-yl)-N-[(3R)-1-isopropylpyrrolidin-3-yl]-N-methylbenzamide]
184 to 185 °C	Cc1nc2ccccc2n1-c1ccc(C(=O)N(C)[C@H]2CCN(C3CCC3)C2)cc1 (as salt: hydrochloride)
254 to 256 °C	CN(C(=O)c1ccc(Cn2ncc3ccccc32)cc1)C1CCN(C2CCC2)CC1 (as salt: hydrochloride) [Example 80, N-(1-cyclobutylpiperidin-4-yl)-4-(1H-indazol-1-ylmethyl)-N-methylbenzamide]
163 to 165 °C	CN(C(=O)c1ccc(-n2ncc3ccccc32)cc1)[C@@H]1CCN(C2CCC2)C1 (as salt: hydrochloride) [Example 65, N-[(3R)-1-cyclobutylpyrrolidin-3-yl]-4-(1H-indazol-1-yl)-N-methylbenzamide]
240 °C (dec.)	CN(C(=O)c1ccc(-n2cccn2)cc1)C1CCN(C2CCCC2)CC1 (as salt: hydrochloride) [Example 87, N-(1-cyclopentylpiperidin-4-yl)-N-methyl-4-(1H-pyrazol-1-yl)benzamide]
